Test [1] relates to Aspergillus fumigatus. Description: Antifungal activity against Aspergillus fumigatus incubated for 72 hrs. The format is functional.
In test [2] the test system is Candida albicans. Nature of the test: Antifungal activity against Candida albicans 124 incubated for 48 hrs. The class given is functional.
The target in test [3] is Cholecystokinin(CCK) A/B (Homo sapiens) (UniProt P32239+P32238). Description: Selectivity index, ratio of IC50 for human Cholecystokinin B receptor expressed in CHO-K1 cells to IC50 for human Cholecystokinin A receptor expressed in CHO-K1 cells. The class given is cell-based.
Sequence of Cholecystokinin(CCK) A/B (Homo sapiens) (P32238 whole entry, looked up): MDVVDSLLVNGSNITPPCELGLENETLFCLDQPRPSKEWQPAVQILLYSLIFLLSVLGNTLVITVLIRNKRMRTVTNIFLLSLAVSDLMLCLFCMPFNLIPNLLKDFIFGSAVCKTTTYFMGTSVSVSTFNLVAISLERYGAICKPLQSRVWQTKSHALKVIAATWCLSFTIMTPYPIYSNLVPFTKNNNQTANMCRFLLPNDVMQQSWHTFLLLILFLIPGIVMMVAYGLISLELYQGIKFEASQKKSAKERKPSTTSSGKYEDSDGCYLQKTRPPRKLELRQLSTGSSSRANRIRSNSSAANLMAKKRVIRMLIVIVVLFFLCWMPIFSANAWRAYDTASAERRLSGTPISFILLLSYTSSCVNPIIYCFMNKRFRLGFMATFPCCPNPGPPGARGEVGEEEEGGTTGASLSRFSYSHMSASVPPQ
Sequence of Cholecystokinin(CCK) A/B (Homo sapiens) (P32239 whole entry, looked up): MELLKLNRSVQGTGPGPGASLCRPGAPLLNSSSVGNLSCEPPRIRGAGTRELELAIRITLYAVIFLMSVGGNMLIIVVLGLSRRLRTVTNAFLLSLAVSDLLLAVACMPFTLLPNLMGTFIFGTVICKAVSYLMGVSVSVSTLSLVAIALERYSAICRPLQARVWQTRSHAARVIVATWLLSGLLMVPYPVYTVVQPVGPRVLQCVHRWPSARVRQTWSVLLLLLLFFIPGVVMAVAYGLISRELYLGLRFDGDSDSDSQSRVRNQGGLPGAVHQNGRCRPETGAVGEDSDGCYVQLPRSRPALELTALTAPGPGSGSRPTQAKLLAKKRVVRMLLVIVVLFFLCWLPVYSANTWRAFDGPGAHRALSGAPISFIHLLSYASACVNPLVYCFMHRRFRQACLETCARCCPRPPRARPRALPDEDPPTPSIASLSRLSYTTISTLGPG
Test [4] in a line: Displacement of N-[3H]ethyladenosin-5'-uronamide from adenosine receptor A2 in rat striatal membranes by liquid scintillation counting method. The format is cell membranes, Striatum, Membrane.
A short description of test [5]: Selectivity ratio of Ki for Displacement of N-[3H]ethyladenosin-5'-uronamide from adenosine receptor A2 in rat striatal membranes to Ki for Displacement of N6-[3H]cyclohexyladenosine from adenosine receptor A1 in guinea pig forebrain membranes. The format is cell membranes.
In test [6] the target is Growth hormone secretagogue receptor type 1 (Rattus norvegicus, UniProt O08725). Nature of the test: Agonist activity at GHSR in Wistar rat pituitary gland cells assessed as induction of GH release by RIA. The class given is tissue-based, Pituitary gland cell.
Sequence of Growth hormone secretagogue receptor type 1 (O08725 whole entry): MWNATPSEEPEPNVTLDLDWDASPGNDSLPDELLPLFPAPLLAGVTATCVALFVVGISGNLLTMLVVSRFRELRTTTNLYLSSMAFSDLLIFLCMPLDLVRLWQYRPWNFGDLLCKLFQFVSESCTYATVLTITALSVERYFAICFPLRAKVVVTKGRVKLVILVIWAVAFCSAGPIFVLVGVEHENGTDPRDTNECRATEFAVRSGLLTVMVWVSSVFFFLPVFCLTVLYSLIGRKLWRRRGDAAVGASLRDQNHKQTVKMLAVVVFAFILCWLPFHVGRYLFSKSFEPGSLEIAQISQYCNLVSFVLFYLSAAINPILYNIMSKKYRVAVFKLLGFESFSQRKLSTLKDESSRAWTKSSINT

≈ marks a conversion by molar mass, not a printed value. Bounds are passed on as bounds.

Take `CN(Cc1ccc(Cc2ccccc2)cc1)Cc1cccc2ccccc12`: the MIC in test [1] and in test [2] was > 100 µg/mL in each case. As to `CN(Cc1ccc(C2(c3ccccc3)CC2)cc1)Cc1cccc2ccccc12`, the minimal inhibitory concentration (MIC) (usually the lowest concentration that inhibits growth of the organism) in test [1] was determined as 1.56 µg/mL (≈ 4.13 µM); in test [2], 3.13 µg/mL (≈ 8.29 µM). For `CC(C)N(C(=O)CN1C(=O)C(C)(CC(=O)Nc2ccccc2)C(=O)N(c2ccccc2)c2ccccc21)c1ccccc1` (centres undefined), the Ratio IC50 in test [3] amounted to 110.

Consider `CCCn1c(=O)c2nc(C3C(C)(C)CCC3(C)C)[nH]c2n(CCC)c1=O`, for which the Ki (usually a dissociation constant, usually derived from enzyme kinetics or from competition with a known ligand) in test [4] was > 100000 nM. Moreover, in test [5], the Ratio Ki is > 4500. Turning to `CC(C)N(C(=O)CN1C(=O)C(C)(NC(=O)Nc2ccccc2)C(=O)N(c2ccccc2)c2ccccc21)c1ccccc1` (centres undefined), the Ratio IC50 in test [3] is 0.2.

Consider `O=C(NC(Cc1c[nH]c2ccccc12)C(=O)N1CCC2(CCc3ccccc32)CC1)NC1CN2CCC1CC2` (centres undefined) [SPIROPIPERIDINE], for which the EC50 – broadly, the concentration at which the effect is half-maximal – in test [6] was found to be 50 nM.

On to `CCCn1c(=O)c2[nH]c(C3CCCC3)nc2n(CCC)c1=O` [1,3-DIPROPYL-8-CYCLOPENTYLXANTHINE [DPCPX]], for which, in test [4], affinity was put at a Ki of 590 nM. For the molecule `CN(Cc1ccc(C(C)(C)c2ccccc2)cc1)Cc1cccc2ccccc12`, the minimal inhibitory concentration (MIC) in test [1] was 0.1 µg/mL (≈ 0.263 µM); in test [2], 1.56 µg/mL (≈ 4.11 µM). As for `CN1N=C2CCN(C(=O)[C@@H](COCc3ccccc3)NC(=O)C(C)(C)N)C[C@@]2(Cc2ccccc2)C1=O` [CAPROMORELIN], the EC50 in test [6] was found to be 3 nM. For the molecule `CC(C)N(C(=O)CN1C(=O)C(CC(=O)Nc2ccccc2)C(=O)N(c2ccccc2)c2ccccc21)c1ccccc1` (centres undefined), the Ratio IC50 in test [3] is 5.

(Values after ChEMBL document CHEMBL4680279, “Opportunities for Tapping into Three-Dimensional Chemical Space through a Quaternary Carbon” (J Med Chem, 2020).)
